Laboratory results reported in patent publication US6593335B1, “Potassium channel openers” (Abbott Laboratories, priority 1997, dated 2003).

Target: potassium channels (Sus scrofa, UniProt F1SR11)
Test: Functional potassium channel opening activity in isolated Landrace pig bladder strips (field-stimulated twitch)
Conditions: for Landrace Pig Bladder Index: ED50 for P1075 divided by ED50 for the test agonist, averaged over tissues; for Landrace Pig Bladder pD2: negative logarithm of ED50; for Emax: pig; for Emax / Landrace Pig Bladder Efficacy (% P1075): maximal efficacy relative to P1075, field stimulation 0.05Hz, 0.5 milli-seconds at 20 volts
Description: The entire bladder was removed and ed into Krebs Ringer bicarbonate solution (composition, mM: NaCl,; dextrose, 1; KCl, 4.7; […] Propranolol (0.004 ed in all of the assays to block […]. The trigonal and dome […]. Strips 3-5 mm wide and 20 mm long were prepared from the cut in a circular fashion. The mucosal layer was removed. One end ationary glass rod and the other to a Grass FT03 transducer at a basal am. Two parallel platinum electrodes were included in the stationary ide field stimulation of 0.05Hz, 0.5 milli-seconds at 20 volts. […] Tissues were allowed to equilibrate for at least 60 minutes and primed with 80 mM KCl. A control concentration response curve (cumulative) was generated for each tissue using the potassium channel opener […] as the control agonist. […] After a 60 minute rinsing period, a concentration response curve (cumulative) was generated for the test agonist in the same fashion as that used for the control agonist […]. The maximal efficacy of each compound (expressed as % relative to […]) is reported. […] J. Physiol. 235, E97 (1980)), and agonist potencies were expressed as pD2 (the negative logarithm). Agonist potencies were also expressed as an index relative to […]. The index was calculated by dividing the ED50 for […] by the ED50 for the test agonist in a given tissue. Each tissue was used for only one test agonist, and the indices obtained from each tissue were averaged to provide an average index of potency.

SMILES	Landrace Pig Bladder Index	Landrace Pig Bladder pD2	Emax [%]	Landrace Pig Bladder Efficacy (% P1075)
Cc1ccc(C2C3=C(CCCC3=O)NC3=C2S(=O)(=O)CC3)cc1[N+](=O)[O-] (single isomer, unassigned) [Example 126, 9-(4-methyl-3-nitrophenyl)-2,3 5,6,7,9-hexahydro[3. 2-b]guinolin-8(4H)-one, 1,1-dioxide]	0.20	6.3	99	–
O=S1(=O)CCC2=C1C(c1ccc(F)c(Br)c1)C=C(C(F)(F)F)N2 (single isomer, unassigned) [Example 136, 7-(3-bromo-4-fluorophenyl)-5-(trifluoromethyl)-2, 3 4 7-tetrahydrothieno[3 2-b]pyridine, 1,1-dioxide]	0.073	5.9	92	–
O=C1CCC2=C1C(c1ccc(Cl)c(Cl)c1)C1=C(CCS1(=O)=O)N2 (single isomer, unassigned) [Example 146]	0.40	6.7	100	–
O=C1CCCC2=C1C(c1ccc(Br)c(Br)c1)C1=C(CCS1(=O)=O)N2 (single isomer, unassigned) [Example 147, 9-(3.4-dibromophenyl)-2,3,5,6,7,,9-hexahydrothieno[3.2-b]quinolin-8(4H)-one, 1,1-dioxide]	0.24	6.2	99	–
O=C1CCCC2=C1C(c1ccc(F)c(I)c1)C1=C(CCS1(=O)=O)N2 (single isomer, unassigned) [Example 149, 9-(4-fluoro-3-iodophenyl)-2,3,5,6,7,9-hexahydrothieno[3 2-b]quinolin-8(4H)-one, 1,1-dioxide]	1.2	6.6	80	–
Cc1ccc(C2C3=C(CCCC3=O)NC3=C2S(=O)(=O)CC3)cc1C#N (single isomer, unassigned) [Example 155, 9-(3-cvano-4-methylphenyl)-2,3 5,6,7,9-hexahydrothieno[3,2-b]guinolin-8(4H)-one, 1,1-dioxide]	0.026	5.4	98	–
O=C1CCC2=C1C(c1ccc(Cl)c([N+](=O)[O-])c1)C1=C(CCS1(=O)=O)N2 (single isomer, unassigned) [Example 161]	0.23	6.3	96	–
O=C1CCCC2=C1C(c1ccc(F)c(-c3ccco3)c1)C1=C(CCS1(=O)=O)N2 (single isomer, unassigned) [Example 165, 9-[4-fluoro-3-(2-fMrIl)phenyl]-2,3,5,6,7,9-hexahydrothieno[3,2-b]quinolin-8(4H)-one, 1,1-dioxide]	0.035	5.8	94	–
O=C1CCCC2=C1C(c1ccc(Br)s1)C1=C(CCS1(=O)=O)N2 (single isomer, unassigned) [Example 167, 9-(5-bromo-2-thienyl)-2,3,5,6,7,9-hexahydrothieno[3,2-b]quinolin-8(4H)-one, 1,1-dioxide]	0.062	5.9	100	–
O=C1CCCC2=C1C(c1cc(Br)cs1)C1=C(CCS1(=O)=O)N2 (single isomer, unassigned) [Example 180, 9-(4-bromo-2-thienyl)-2,3 5,6,7,9-hexahydrothieno[3 2-b]quinolin-8(4H)-one 1,1-dioxide]	0.036	5.5	71	–
O=C1CCC2=C1C(c1ccc(F)c(Br)c1)C1=C(CCCS1(=O)=O)N2 (single isomer, unassigned; (+)) [Example 91]	0.0034	4.6	95	–
O=C1CCCC2=C1C(c1ccc(F)c(Br)c1)C1=C(CCCS1(=O)=O)N2 (single isomer, unassigned; (+)) [Example 93, (+)-I 0-(3-bromo-4-fluorophenyl)-3,4,6,7,8,10-hexahydro-2H-thiopyrano[3 2-b]quinolin-9(5H)-one, 1,1-dioxide]	0.02	5.2	100	–
O=C1CCCC2=C1C(c1ccc(Cl)c(Cl)c1)C1=C(CCS1(=O)=O)N2 (single isomer, unassigned; (+)) [Example 95, (+)-9-(3,4-dichlorophenyl)-2,3,5,6,7,9-hexahydrothieno[3,2-b]quinolin-8(4H)-one, 1,1-dioxide]	0.12	5.6	84	–
O=C1CCCC2=C1C(c1ccc3nonc3c1)C1=C(CCS1(=O)=O)N2 (single isomer, unassigned; (+)) [Example 97, (+)-9-(2. 1,3-benzoxadiazol-5-yl)-2,3,5,6,7,9-hexahydrothieno[3.2-b]quinolin-8(4H)-one, 11-dioxide]	0.059	5.7	100	–
O=C1CCCC2=C1C(c1ccc(Cl)c([N+](=O)[O-])c1)C1=C(CCS1(=O)=O)N2 (single isomer, unassigned; (+)) [Example 99, (+)-9-(4-chloro-3-nitrophenyl)-2,3,5,6,7,9-hexahydrothieno[3.2-b]guinolin-8(4H)-one, 1,1-dioxide]	0.18	6.2	100	–
N#Cc1cccc(C2C3=C(CCC3=O)NC3=C2S(=O)(=O)CC3)c1 (single isomer, unassigned; (+)) [Example 164]	0.0071	5.0	94	–
O=C1CCC2=C1C(c1ccc(F)c(Br)c1)C1=C(CCS1(=O)=O)N2 (single isomer, unassigned; (-)) [Example 86]	0.069	6.5	100	–
O=C1CCC2=C1C(c1ccc(F)c(Br)c1)C1=C(CCCS1(=O)=O)N2 (single isomer, unassigned; (-)) [Example 92]	0.44	6.5	–	100
O=C1CCCC2=C1C(c1ccc(F)c(Br)c1)C1=C(CCCS1(=O)=O)N2 (single isomer, unassigned; (-)) [Example 94, (−)-10-(3-bromo-4-fluorophenyl)-3,4,6,7,8,10-hexahydro-2H-thiopyrano[3,2-b]quinolin-9(5H)-one 1,1-dioxide]	0.31	6.4	–	94
O=C1CCCC2=C1C(c1ccc(Cl)c(Cl)c1)C1=C(CCS1(=O)=O)N2 (single isomer, unassigned; (-)) [Example 96, (−)-9-(3,4-dichlorophenyl)-2,3,5,6,7,9-hexahydrothieno[3,2-b]guinolin-8(4H)-one, 1,1-dioxide]	0.37	6.5	–	97
O=C1CCCC2=C1C(c1ccc3nonc3c1)C1=C(CCS1(=O)=O)N2 (single isomer, unassigned; (-)) [Example 98, (−)-9-(2.1 .3-benzoxadiazol-5-yl)-2,3.5,6.7,9-hexahydrothieno[3.2-b]guinolin-8(4H)-one, 1,1-dioxide]	0.057	5.6	–	100
O=C1CCCC2=C1C(c1ccc(Cl)c([N+](=O)[O-])c1)C1=C(CCS1(=O)=O)N2 (single isomer, unassigned; (-)) [Example 100, (−)-9-(4-chloro-3-nitrophenyl)-2,3,5,6,7,9-hexahydrothieno[3,2-b]quinolin-8(4H)-one, 1,1-dioxide]	0.17	6.4	–	100
O=C1CCCC2=C1C(c1ccc(F)c(Cl)c1)C1=C(CCS1(=O)=O)N2 (single isomer, unassigned; (-)) [Example 110, (−)-9-(3-chloro-4-fluorophenyl)-2,3,5,6,7,9-hexahydrothieno[3.2-b]quinolin-8(4H)-one, 1,1-dioxide]	0.17	6.7	–	100
